# Molecular target: T1, hFXR (Homo sapiens, UniProt Q96RI1)
# T1 construct: expressed in transfected cells; host or cells: CV-1 cells
# T1 sequence (Q96RI1 1-486): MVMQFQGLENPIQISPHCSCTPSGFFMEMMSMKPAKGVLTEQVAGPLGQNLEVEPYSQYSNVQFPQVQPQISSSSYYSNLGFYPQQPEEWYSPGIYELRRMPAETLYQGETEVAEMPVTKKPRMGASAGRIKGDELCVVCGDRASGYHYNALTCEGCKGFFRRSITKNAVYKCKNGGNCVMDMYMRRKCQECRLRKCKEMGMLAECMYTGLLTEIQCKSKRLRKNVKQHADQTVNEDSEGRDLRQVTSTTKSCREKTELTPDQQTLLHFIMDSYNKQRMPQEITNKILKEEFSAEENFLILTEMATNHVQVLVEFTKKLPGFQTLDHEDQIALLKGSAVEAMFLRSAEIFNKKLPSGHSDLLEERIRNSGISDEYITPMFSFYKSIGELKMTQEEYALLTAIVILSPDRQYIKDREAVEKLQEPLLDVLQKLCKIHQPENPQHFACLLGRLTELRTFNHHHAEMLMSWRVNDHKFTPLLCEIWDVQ
# T1 sequence (P19793 1-462 partner): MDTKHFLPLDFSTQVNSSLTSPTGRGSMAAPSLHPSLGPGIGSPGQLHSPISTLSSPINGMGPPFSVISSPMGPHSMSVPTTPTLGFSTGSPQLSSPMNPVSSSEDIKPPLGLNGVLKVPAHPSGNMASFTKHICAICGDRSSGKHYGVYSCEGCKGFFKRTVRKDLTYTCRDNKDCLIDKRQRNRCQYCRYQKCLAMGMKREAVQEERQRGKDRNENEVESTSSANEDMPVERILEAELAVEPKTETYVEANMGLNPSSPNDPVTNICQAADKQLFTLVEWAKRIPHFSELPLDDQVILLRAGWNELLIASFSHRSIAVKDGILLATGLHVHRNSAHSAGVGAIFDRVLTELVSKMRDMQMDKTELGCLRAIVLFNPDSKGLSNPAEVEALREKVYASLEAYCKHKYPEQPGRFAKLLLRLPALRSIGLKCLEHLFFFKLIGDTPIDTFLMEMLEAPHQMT
# Assay: In Vitro FXR Assay (TK): TK-ECRE-luc reporter in transfected CV-1 cells
# Type: cell-based
# Conditions: 18 hrs, luminescence, maximum efficacy of <25% of the Fexarmine control classified as '+'
# Method in brief: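 Transiently transfected monkey CV-1 cells (hFXR, hRXR, TK-ECRE-luciferase, YFP control plasmid), held in stripped-serum DMEM, received compound dilutions from DMSO for 18 h at 37 °C. Activity was taken from luminescence of the cell lysates.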
row,Structure (SMILES),EC50 [nM]
1,"COc1ccc([C@H]2CC[C@H](CN(c3cccc(-c4cnc(C5CC5)s4)c3)C(=O)[C@H]3CC[C@H](C(=O)O)CC3)CC2)cc1C#N [Compound 17.11, trans-4-(((trans-4-(3-Cyano-4-methoxyphenyl)cyclohexyl)methyl)(3-(2-4-cyclopropylthiazol-5-yl)phenyl)carbamoyl)cyclohexanecarboxylic acid]",≤ 250
2,"COc1ccc([C@H]2CC[C@H](CN(c3cccc(-c4cnc(C5CC5)s4)c3)C(=O)[C@H]3CC[C@H](C(=O)O)CC3)CC2)nc1C#N [Compound 17.12, trans-4-(((trans-4-(6-Cyano-5-methoxypyridin-2-yl)cyclohexyl)methyl)(3-(2-cyclopropylthiazol-5-yl)phenyl)carbamoyl) cyclohexanecarboxylic acid]",≤ 250
3,"COc1ccc([C@H]2CC[C@H](CN(c3cccc(-c4cnn(C5CC5)c4)c3)C(=O)[C@H]3CC[C@H](C(=O)O)CC3)CC2)cc1C [Compound 17.13, trans-4-((3-(1-Cyclopropyl-1H-pyrazol-4-yl)phenyl)((trans-4-(4-methoxy-3-methylphenyl)cyclohexyl)methyl)carbamoyl)cyclohexanecarboxylic acid]",≤ 250
4,"CN(C)c1ccc([C@H]2CC[C@H](CN(c3cccc(-c4cnn(C5CC5)c4)c3)C(=O)[C@H]3CC[C@H](C(=O)O)CC3)CC2)cn1 [Compound 17.14, trans-4-((3-(1-Cyclopropyl-1H-pyrazol-4-yl)phenyl)((trans-4-(6-(dimethylamino)pyridin-3-yl)cyclohexyl)methyl)carbamoyl) cyclohexanecarboxylic acid]",≤ 250
5,"COc1ccc([C@H]2CC[C@H](CN(c3cccc(-c4cnn(C5CC5)c4)c3)C(=O)[C@H]3CC[C@H](C(=O)O)CC3)CC2)cc1Cl [Compound 17.15, trans-4-(((trans-4-(3-Chloro-4-methoxyphenyl)cyclohexyl)methyl)(3-(1-cyclopropyl-1H-pyrazol-4-yl)phenyl)carbamoyl) cyclohexanecarboxylic acid]",≤ 250
6,"Cn1nc(F)c2cc([C@H]3CC[C@H](CN(c4cccc(-c5cnn(C6CC6)c5)c4)C(=O)[C@H]4CC[C@H](C(=O)O)CC4)CC3)ccc21 [Compound 17.16, trans-4-((3-(1-Cyclopropyl-1H-pyrazol-4-yl)phenyl)((trans-4-(3-fluoro-1-methyl-1H-indazol-5-yl)cyclohexyl)methyl)carbamoyl) cyclohexanecarboxylic acid]",≤ 250
7,"COc1ccc(C23CCC(CN(c4cccc(-c5cnn(C6CC6)c5)c4)C(=O)[C@H]4CC[C@H](C(=O)O)CC4)(CC2)CC3)cc1C [Compound 17.17, trans-4-((3-(1-Cyclopropyl-1H-pyrazol-4-yl)phenyl)((4-(4-methoxy-3-methylphenyl)bicyclo[2.2.2]octan-1-yl)methyl)carbamoyl) cyclohexanecarboxylic acid]",≤ 250
8,"COc1ccc([C@H]2CC[C@H](CN(c3cccc(-c4cnn(C5CC5)c4)c3)C(=O)[C@H]3CC[C@H](C(=O)O)CC3)CC2)nc1C [Compound 17.18, trans-4-((3-(1-Cyclopropyl-1H-pyrazol-4-yl)phenyl)((trans-4-(5-methoxy-6-methylpyridin-2-yl)cyclohexyl)methyl)carbamoyl) cyclohexanecarboxylic acid]",250 to 1000
9,"COc1ccc(C23CCC(CN(c4cc(-c5cnn(C6CC6)c5)ccn4)C(=O)[C@H]4CC[C@H](C(=O)O)CC4)(CC2)CC3)cc1C [Compound 17.19, trans-4-((4-(1-Cyclopropyl-1H-pyrazol-4-yl)pyridin-2-yl)((4-(4-methoxy-3-methylphenyl)bicyclo[2.2.2]octan-1-yl)methyl)carbamoyl) cyclohexanecarboxylic acid]",≤ 250
10,"COc1ccc([C@H]2CC[C@H](CN(c3cc(-c4cnn(C5CC5)c4)ccn3)C(=O)[C@H]3CC[C@H](C(=O)O)CC3)CC2)cc1C [Compound 17.20, trans-4-((4-(1-Cyclopropyl-1H-pyrazol-4-yl)pyridin-2-yl)((trans-4-(4-methoxy-3-methylphenyl)cyclohexyl)methyl)carbamoyl)cyclohexanecarboxylic acid]",≤ 250
11,"COc1ccc([C@H]2CC[C@H](CN(c3cc(-c4cnn(C5CC5)c4)ccn3)C(=O)[C@H]3CC[C@H](C(=O)O)CC3)CC2)nc1C [Compound 17.21, trans-4-((4-(1-Cyclopropyl-1H-pyrazol-4-yl)pyridin-2-yl)((trans-4-(5-methoxy-6-methylpyridin-2-yl)cyclohexyl)methyl)carbamoyl) cyclohexanecarboxylic acid]",≥ 1000
12,"COc1ccc([C@H]2CC[C@H](CN(c3cccc(-c4cnn(C5CC5)c4)c3)C(=O)[C@H]3CC[C@H](C(=O)O)CC3)CC2)cc1C#N [Compound 17.22, trans-4-(((trans-4-(3-Cyano-4-methoxyphenyl)cyclohexyl)methyl)(3-(1-cyclopropyl-1H-pyrazol-4-yl)phenyl)carbamoyl)cyclohexanecarboxylic acid]",≤ 250
13,"COc1ccc([C@H]2CC[C@H](CN(c3cc(-c4cnn(C5CC5)c4)ccn3)C(=O)[C@H]3CC[C@H](CC(=O)O)CC3)CC2)nc1C [Compound 17.23, 2-(trans-4-((4-(1-Cyclopropyl-1H-pyrazol-4-yl)pyridin-2-yl)((trans-4-(5-methoxy-6-methylpyridin-2-yl)cyclohexyl)methyl)carbamoyl)cyclohexyl)acetic acid]",250 to 1000
14,"COc1ccc([C@H]2CC[C@H](CN(c3cccc(-c4cnn(C5CC5)c4)c3)C(=O)[C@H]3CC[C@H](CC(=O)O)CC3)CC2)nc1C [Compound 17.24, 2-(trans-4-((3-(1-Cyclopropyl-1H-pyrazol-4-yl)phenyl)((trans-4-(5-methoxy-6-methylpyridin-2-yl)cyclohexyl)methyl)carbamoyl)cyclohexyl)acetic acid]",≤ 250
15,"COc1ccc([C@H]2CC[C@H](CN(c3cc(-c4cnn(C(C)C)c4)ccn3)C(=O)[C@H]3CC[C@H](CC(=O)O)CC3)CC2)nc1C [Compound 17.25, 2-(trans-4-((4-(1-Isopropyl-1H-pyrazol-4-yl)pyridin-2-yl)((trans-4-(5-methoxy-6-methylpyridin-2-yl)cyclohexyl)methyl)carbamoyl)cyclohexyl) acetic acid]",≤ 250
16,"COc1ccc([C@H]2CC[C@H](CN(c3cc(-c4cnn(C(C)C)c4)ccn3)C(=O)[C@H]3CC[C@H](CC(=O)O)CC3)CC2)cc1C#N [Compound 17.26, 2-(trans-4-(((trans-4-(3-Cyano-4-methoxyphenyl)cyclohexyl)methyl)(4-(1-isopropyl-1H-pyrazol-4-yl)pyridin-2-yl)carbamoyl)cyclohexyl)acetic acid]",≤ 250
17,"COc1ccc([C@H]2CC[C@H](CN(c3cc(-c4cnn(C(C)C)c4)ccn3)C(=O)[C@H]3CC[C@H](CC(=O)O)CC3)CC2)nc1C#N [Compound 17.27, 2-(trans-4-(((trans-4-(6-Cyano-5-methoxypyridin-2-yl)cyclohexyl)methyl)(4-(1-isopropyl-1H-pyrazol-4-yl)pyridin-2-yl)carbamoyl)cyclohexyl)acetic acid]",≥ 1000
18,"COc1ccc([C@H]2CC[C@H](CN(c3cccc(-c4coc(C5CC5)n4)c3)C(=O)[C@H]3CC[C@H](C(=O)O)CC3)CC2)cc1C#N [Compound 18, trans-4-(((trans-4-(3-Cyano-4-methoxyphenyl)cyclohexyl)methyl)(3-(2-cyclopropyloxazol-4-yl)phenyl)carbamoyl)cyclohexanecarboxylic acid]",≤ 250
19,"COc1ccc([C@H]2CC[C@H](CN(c3cccc(-c4coc(C5CC5)n4)c3)C(=O)[C@H]3CC[C@H](C(=O)O)CC3)CC2)nc1C [Compound 18.01, trans-4-((3-(2-Cyclopropyloxazol-4-yl)phenyl)((trans-4-(5-methoxy-6-methylpyridin-2-yl)cyclohexyl)methyl)carbamoyl) cyclohexanecarboxylic acid]",≤ 250
20,"COc1ccc([C@H]2CC[C@H](CN(c3cc(-c4coc(C5CC5)n4)ccn3)C(=O)[C@H]3CC[C@H](C(=O)O)CC3)CC2)cc1C [Compound 18.02, trans-4-((4-(2-Cyclopropyloxazol-4-yl)pyridine-2-yl)((trans-4-(4-methoxy-3-methylphenyl)cyclohexyl)methyl)carbamoyl)cyclohexanecarboxylic acid]",≤ 250
21,"COc1ccc(C23CCC(CN(c4cc(-c5coc(C6CC6)n5)ccn4)C(=O)[C@H]4CC[C@H](C(=O)O)CC4)(CC2)CC3)cc1C [Compound 18.03, trans-4-((4-(2-Cyclopropyloxazol-4-yl)pyridin-2-yl)((4-(4-methoxy-3-methylphenyl)bicyclo[2.2.2]octan-1-yl)methyl)carbamoyl) cyclohexanecarboxylic acid]",≤ 250
